From PubChem BioAssay AID248 (DTP/NCI, 2004) come the findings set out here.

This test relates to L1210 leukemia ip in BDF1 mice, survival T/C. As to the kind of experiment: NCI In Vivo Anticancer Drug Screen. Data for tumor model L1210 Leukemia (intraperitoneal) in B6D2F1 (BDF1) mice. The note with it: endpoint: mean survival time, higher = longer survival. The essentials: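 Antitumor effect is assessed in tumor-bearing animals. Survival in the compound arm is compared with a vehicle-dosed control arm and expressed as their quotient.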

The mark [1] stands for this setting: dose: 100.0 mg/kg/injection, schedule: Q01DX009 (ip), vehicle: Klucel (hydroxypropylcellulose) (HPC).
Where [2] appears, read: dose: 200.0 mg/kg/injection, schedule: Q01DX009 (ip), vehicle: Klucel (hydroxypropylcellulose) (HPC).
The mark [3] stands for this setting: dose: 100.0 mg/kg/injection, schedule: Q01DX001 (ip), vehicle: saline.
Setting [4] is: dose: 200.0 mg/kg/injection, schedule: Q01DX001 (ip), vehicle: saline.
The mark [5] stands for this setting: dose: 400.0 mg/kg/injection, schedule: Q01DX001 (ip), vehicle: saline.
Where [6] appears, read: dose: 100.0 mg/kg/injection, schedule: Q04DX003 (ip), vehicle: Klucel (hydroxypropylcellulose) (HPC).
Where [7] appears, read: dose: 200.0 mg/kg/injection, schedule: Q04DX003 (ip), vehicle: Klucel (hydroxypropylcellulose) (HPC).
Setting [8] is: dose: 400.0 mg/kg/injection, schedule: Q04DX003 (ip), vehicle: Klucel (hydroxypropylcellulose) (HPC).
Where [9] appears, read: dose: 100.0 mg/kg/injection, schedule: Q04DX003 (ip), vehicle: saline with Tween-80.
[10] abbreviates: dose: 200.0 mg/kg/injection, schedule: Q04DX003 (ip), vehicle: saline with Tween-80.
[11] abbreviates: dose: 100.0 mg/kg/injection, schedule: Q04DX002 (ip), vehicle: saline.
Setting [12] is: dose: 100.0 mg/kg/injection, schedule: Q01DX009 (ip), vehicle: saline.
Setting [13] is: dose: 100.0 mg/kg/injection, schedule: Q04DX003 (ip), vehicle: saline.
Setting [14] is: dose: 200.0 mg/kg/injection, schedule: Q01DX009 (ip), vehicle: saline.
Where [15] appears, read: dose: 200.0 mg/kg/injection, schedule: Q04DX003 (ip), vehicle: saline.
[16] abbreviates: dose: 400.0 mg/kg/injection, schedule: Q01DX009 (ip), vehicle: saline.
[17] abbreviates: dose: 400.0 mg/kg/injection, schedule: Q04DX003 (ip), vehicle: saline.

Molecules are shown by their SMILES. Inconclusive results and toxic doses are left out.

Turning to `O=Cc1cc(Cl)cc(Cl)c1OC(=O)c1ccccc1`, the T/C is 97 % of control under setting [1] and 92 % of control under setting [2].
Regarding `N#CC(c1cnc2ccccc2n1)c1cccc2ccccc12` (stereo not given), the T/C under setting [3] was 94 % of control, the T/C under setting [4] is 92 % of control and the T/C under setting [5] was 97 % of control.
With `COC(=O)c1ccc(SC(=O)N(C)C)cc1`, the T/C reads like this: under setting [6], 91 % of control; under setting [7], 96 % of control; under setting [8], 91 % of control.
With `CCc1nc2ccccc2[nH]1`, the T/C was 97 % of control under setting [9] and 102 % of control under setting [10].
Consider `CC1(C)C2CCC(=O)OC1CC2` (stereo not given), for which the T/C runs as follows: (dose: 5.0 mg/kg/injection, schedule: Q01DX001 (ip), vehicle: saline) 116 % of control; (dose: 10.0 mg/kg/injection, schedule: Q01DX001 (ip), vehicle: saline) 100 % of control; (dose: 20.0 mg/kg/injection, schedule: Q01DX001 (ip), vehicle: saline) 86 % of control; (dose: 40.0 mg/kg/injection, schedule: Q01DX001 (ip), vehicle: saline) 108 % of control.
As for `CCOC(=O)C1/C(=N\N=C2\c3c(nnp3N(CCOS(C)(=O)=O)CCOS(C)(=O)=O)C(C(=O)OCC)C(c3ccc(OC(C)=O)cc3)C2C(=O)OCC)c2c(nnp2N(CCOS(C)(=O)=O)CCOS(C)(=O)=O)C(C(=O)OCC)C1c1ccc(OC(C)=O)cc1` (stereo not given), the T/C was 103 % of control (dose: 50.0 mg/kg/injection, schedule: Q01DX001 (ip), vehicle: saline); 109 % of control under setting [3]; 109 % of control under setting [4]; 107 % of control under setting [5].
On to `CCCCN1COC(OCC)C(C)(C)C1` (stereo not given), for which the T/C (dose: 75.0 mg/kg/injection, schedule: Q01DX009 (ip), vehicle: saline) was 116 % of control; the T/C (dose: 150.0 mg/kg/injection, schedule: Q01DX009 (ip), vehicle: saline) is 113 % of control; the T/C (dose: 300.0 mg/kg/injection, schedule: Q01DX009 (ip), vehicle: saline) is 112 % of control.
`COc1cccc(/C=C/C(=O)c2ccc(Cl)cc2)c1OC`: the T/C (dose: 100.0 mg/kg/injection, schedule: Q01DX009 (ip), vehicle: saline with Tween-80) was 101 % of control; the T/C under setting [9] is 96 % of control; the T/C (dose: 200.0 mg/kg/injection, schedule: Q01DX009 (ip), vehicle: saline with Tween-80) is 88 % of control; the T/C under setting [10] is 91 % of control; the T/C (dose: 400.0 mg/kg/injection, schedule: Q01DX009 (ip), vehicle: saline with Tween-80) was 87 % of control; the T/C (dose: 400.0 mg/kg/injection, schedule: Q04DX003 (ip), vehicle: saline with Tween-80) is 90 % of control.
Turning to `CCCCCCCCCC(=O)Nc1cccc(C)c1C`, the T/C is 105 % of control (dose: 100.0 mg/kg/injection, schedule: Q04DX002 (ip), vehicle: Klucel (hydroxypropylcellulose) (HPC)); 94 % of control (dose: 200.0 mg/kg/injection, schedule: Q04DX002 (ip), vehicle: Klucel (hydroxypropylcellulose) (HPC)); 94 % of control (dose: 400.0 mg/kg/injection, schedule: Q04DX002 (ip), vehicle: Klucel (hydroxypropylcellulose) (HPC)).
As for `CCCCS(=O)/C=C\S(=O)CCCC` (stereo not given), the T/C runs as follows: under setting [11], 117 % of control; (dose: 200.0 mg/kg/injection, schedule: Q04DX002 (ip), vehicle: saline) 106 % of control.
In the case of `COC(CNCc1ccccc1)OC`, the T/C runs as follows: (dose: 75.0 mg/kg/injection, schedule: Q01DX001 (ip), vehicle: steriod suspending solution) 101 % of control; (dose: 150.0 mg/kg/injection, schedule: Q01DX001 (ip), vehicle: steriod suspending solution) 102 % of control.
As for `c1ccc2nc(OCCN3CC3)ccc2c1`, for the setting “dose: 100.0 mg/kg/injection, schedule: Q01DX001 (ip), vehicle: carboxymethylcellulose (CMC)”, the T/C was 108 % of control.
As for `CCC(CC)(CO)CO`, the T/C is, setting by setting: (dose: 25.0 mg/kg/injection, schedule: Q01DX009 (ip), vehicle: saline) 96 % of control; (dose: 25.0 mg/kg/injection, schedule: Q04DX003 (ip), vehicle: saline) 96 % of control; (dose: 50.0 mg/kg/injection, schedule: Q01DX009 (ip), vehicle: saline) 96 % of control; (dose: 50.0 mg/kg/injection, schedule: Q04DX003 (ip), vehicle: saline) 102 % of control; under setting [12], 92 % of control; under setting [6], 103 % of control. The T/C under setting [13] is 91 % of control; the T/C under setting [14] is 96 % of control; the T/C under setting [7] is 94 % of control; the T/C under setting [15] is 91 % of control; the T/C under setting [16] was 96 % of control; the T/C under setting [8] was 97 % of control. Also, the T/C under setting [17] was 107 % of control.
As to `CC(=O)c1ccc(C(C)=O)c(OCc2ccccc2)c1`, the T/C is 101 % of control under setting [1]; 103 % of control under setting [6]; 95 % of control under setting [2]; 98 % of control under setting [7]; 92 % of control (dose: 400.0 mg/kg/injection, schedule: Q01DX009 (ip), vehicle: Klucel (hydroxypropylcellulose) (HPC)); 97 % of control under setting [8].
As for `CNC(N)=S`, the T/C reads like this: under setting [13], 99 % of control; under setting [15], 94 % of control; under setting [17], 97 % of control.
Take `CN(CCN(C)P(=O)(N1CC1)N1CC1)P(=O)(N1CC1)N1CC1`: the T/C (dose: 0.62 mg/kg/injection, schedule: Q01DX Z (ip), vehicle: saline) was 87 % of control; the T/C (dose: 1.25 mg/kg/injection, schedule: Q01DX Z (ip), vehicle: saline) was 90 % of control; the T/C (dose: 2.5 mg/kg/injection, schedule: Q01DX Z (ip), vehicle: saline) was 92 % of control; the T/C (dose: 5.0 mg/kg/injection, schedule: Q01DX Z (ip), vehicle: saline) is 108 % of control; the T/C (dose: 20.0 mg/kg/injection, schedule: Q01DX Z (ip), vehicle: saline) was 156 % of control.
Consider `C=CCC(C#N)(CCN(C)C)c1cccc2ccccc12` (stereo not given), for which the T/C is 99 % of control under setting [1] and 111 % of control under setting [2].
Take `CC(C)(C)C1CCC(=O)CC1`: the T/C is 109 % of control (dose: 12.5 mg/kg/injection, schedule: Q04DX002 (ip), vehicle: saline); 106 % of control (dose: 25.0 mg/kg/injection, schedule: Q04DX002 (ip), vehicle: saline); 95 % of control (dose: 50.0 mg/kg/injection, schedule: Q04DX002 (ip), vehicle: saline); 99 % of control under setting [11].
As to `CC1=CCC(C/C=N/N=C/CC2CC=C(C)C2(C)C)C1(C)C` (stereo not given), the T/C is 100 % of control (dose: 100.0 mg/kg/injection, schedule: Q01DX009 (sc), vehicle: olive oil, sesame oil, peanut oil); 97 % of control (dose: 100.0 mg/kg/injection, schedule: Q04DX003 (sc), vehicle: olive oil, sesame oil, peanut oil); 100 % of control (dose: 200.0 mg/kg/injection, schedule: Q01DX009 (sc), vehicle: olive oil, sesame oil, peanut oil); 101 % of control (dose: 200.0 mg/kg/injection, schedule: Q04DX003 (sc), vehicle: olive oil, sesame oil, peanut oil); 98 % of control (dose: 400.0 mg/kg/injection, schedule: Q01DX009 (sc), vehicle: olive oil, sesame oil, peanut oil); 106 % of control (dose: 400.0 mg/kg/injection, schedule: Q04DX003 (sc), vehicle: olive oil, sesame oil, peanut oil).
In the case of `CCOC(=O)/C(C)=C\c1c(C)[nH]c(=O)[nH]c1=O`, the T/C was 87 % of control under setting [12]; 97 % of control under setting [13]; 94 % of control under setting [14]; 94 % of control under setting [15]; 86 % of control under setting [16]; 92 % of control under setting [17].
